Our source for the TGI values is PubChem BioAssay (NCI).

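Five compound concentrations were applied to cells in 96-well plates for 48 hours; endpoints were derived by simple linear interpolation of the resulting dose-response curve. The concentration for full growth arrest is given as TGI.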 A value given as a limit tells only on which side of the number the result lay.

Some test systems named below: BT-549 breast; HT29 colon; SN12C renal; ACHN renal; NCI-H23 lung; A498 renal; NCI-H522 lung; LOX IMVI melanoma; A549 NSCLC; T-47D breast; HL-60(TB) leukemia; SK-MEL-28 melanoma; HCT-15 colon; COLO 205 colon; MCF7 breast; SNB-19 CNS; TK-10 renal; OVCAR-3 ovarian; EKVX NSCLC; U251 CNS.
What all share (assay): DTP human tumour cell line panel, 48 h

For `Nc1[nH]c(=S)nc2snnc12`, the TGI in the test on BT-549 breast, in the test on HT29 colon, with SN12C renal, in the test with ACHN renal, in the test with NCI-H23 lung and in the test with A498 renal was greater than 100 µM in each case. For the same molecule, the TGI with NCI-H522 lung, in the test with LOX IMVI melanoma, with A549 NSCLC, with T-47D breast, in the test with HL-60(TB) leukemia and with SK-MEL-28 melanoma was greater than 100 µM throughout. For the same molecule, the TGI in the test with HCT-15 colon, with COLO 205 colon, in the test with MCF7 breast, in the test with SNB-19 CNS, with TK-10 renal and with OVCAR-3 ovarian was greater than 100 µM in each case.

With `Cc1ccc(O)c(-c2cc(-c3cccc(Cl)c3)c(C#N)c(N)n2)c1`, the TGI with BT-549 breast is greater than 100 µM; with HT29 colon it was 58.3 µM; with SN12C renal, 47.6 µM; with ACHN renal it was 42.1 µM; with NCI-H23 lung, 77.6 µM; with NCI-H522 lung it was 30 µM. For the same molecule, the TGI in the test with LOX IMVI melanoma was 30.8 µM; in the test on A549 NSCLC it was 43.4 µM; in the test with T-47D breast, greater than 100 µM; with EKVX NSCLC, 58.9 µM; in the test on HL-60(TB) leukemia it was 68.6 µM; with U251 CNS, 30 µM. Further, the TGI with HCT-15 colon was 28 µM; with COLO 205 colon it was 32.3 µM; with MCF7 breast, 42.7 µM; with TK-10 renal, 44.6 µM; in the test on OVCAR-3 ovarian, greater than 100 µM.

`COc1cc(COC(=O)N(CC(=O)O)c2ccccc2)c([N+](=O)[O-])cc1OC`: the TGI in the test on BT-549 breast, with HT29 colon, in the test on SN12C renal, in the test with ACHN renal, in the test on NCI-H23 lung and with A498 renal was greater than 100 µM in each case. In addition, the TGI in the test on A549 NSCLC, with T-47D breast, with EKVX NSCLC, with HL-60(TB) leukemia, with SK-MEL-28 melanoma and with U251 CNS was greater than 100 µM each time. The TGI in the test with HCT-15 colon, in the test with COLO 205 colon, in the test with MCF7 breast, in the test with SNB-19 CNS, with TK-10 renal and in the test on OVCAR-3 ovarian was greater than 100 µM each time.

For `COC(=O)C1=C(O)C(C(=O)OC)[C@]2(O)[C@H](C(=O)OC)[C@H]1C[C@@H](c1c(Cl)cccc1Cl)[C@H]2C(=O)OC` (stereo not given in full), the TGI with BT-549 breast was 6.99 µM; in the test with HT29 colon, 7.16 µM; with SN12C renal it was 5.2 µM; in the test on ACHN renal, 4.86 µM; in the test with NCI-H23 lung it was 5.44 µM; with A498 renal it was 4.15 µM. The TGI with LOX IMVI melanoma was 3.69 µM; in the test on A549 NSCLC, 6.21 µM; with T-47D breast it was 23 µM; in the test with EKVX NSCLC it was 18.4 µM; in the test with HL-60(TB) leukemia, 18.7 µM; in the test on SK-MEL-28 melanoma, 7.55 µM. For the same molecule, the TGI in the test on U251 CNS came to 2.99 µM; in the test with HCT-15 colon, 4.49 µM; in the test with COLO 205 colon it was 4.37 µM; in the test on MCF7 breast, 12.3 µM; in the test with SNB-19 CNS, 5.13 µM; in the test with OVCAR-3 ovarian it was 7.87 µM.

Regarding `CCOC(=O)C(Cl)(NC(=O)c1c(F)c(F)c(F)c(F)c1F)C(F)(F)F` (stereo not given), the TGI with BT-549 breast was greater than 100 µM; with HT29 colon, greater than 100 µM; with SN12C renal, greater than 100 µM; in the test with ACHN renal, greater than 100 µM; in the test on NCI-H23 lung, greater than 100 µM; in the test with NCI-H522 lung, 54.7 µM. Besides, the TGI in the test on LOX IMVI melanoma, with A549 NSCLC, with T-47D breast, with EKVX NSCLC, with HL-60(TB) leukemia and with SK-MEL-28 melanoma was greater than 100 µM in each case. Besides, the TGI with U251 CNS, in the test with HCT-15 colon, in the test on COLO 205 colon, in the test with MCF7 breast, with SNB-19 CNS and in the test with TK-10 renal was greater than 100 µM each time. In the test with OVCAR-3 ovarian, this molecule came in with a TGI greater than 100 µM.

With `CCOC(=O)C(C(=S)Nc1ccccc1)c1nn2c(=O)cc(C)nc2s1` (stereo not given), the TGI in the test on BT-549 breast is 78.7 µM; with HT29 colon, 41.4 µM; in the test with SN12C renal, greater than 100 µM; with ACHN renal it was 66.6 µM; in the test with NCI-H23 lung, 89.5 µM; in the test with NCI-H522 lung it was 53.9 µM. Moreover, the TGI in the test with LOX IMVI melanoma is 30.4 µM; with A549 NSCLC, greater than 100 µM; with T-47D breast, 85.2 µM; in the test with EKVX NSCLC, 49.2 µM; with HL-60(TB) leukemia, 43.8 µM; in the test on SK-MEL-28 melanoma, 53.4 µM. Further, the TGI in the test on U251 CNS is 83 µM; in the test on HCT-15 colon it was 85 µM; in the test with COLO 205 colon, 39.5 µM; with MCF7 breast, 37.8 µM; in the test with SNB-19 CNS, greater than 100 µM; in the test on TK-10 renal, 86.8 µM. In the test with OVCAR-3 ovarian, this molecule had a concentration for total growth inhibition (TGI) of 63.2 µM.

As for `COc1ccc(/C=C2\N=C(c3ccccc3)N(N=C3NC(=O)CC(=O)N3)C2=O)cc1`, the TGI in the test on BT-549 breast, with HT29 colon, in the test with SN12C renal, with ACHN renal, with NCI-H23 lung and in the test on A498 renal was greater than 100 µM each time. For the same molecule, the total growth inhibition concentration (TGI) with NCI-H522 lung, in the test with A549 NSCLC, in the test with T-47D breast, in the test with HL-60(TB) leukemia, in the test with SK-MEL-28 melanoma and in the test with U251 CNS was greater than 100 µM each time. The total growth inhibition concentration (TGI) in the test on HCT-15 colon, in the test on COLO 205 colon, in the test on MCF7 breast, in the test on SNB-19 CNS, in the test on TK-10 renal and in the test with OVCAR-3 ovarian was greater than 100 µM each time.

For `O=C(O)c1cnc2[nH]ccn2c1=O`, the TGI in the test on BT-549 breast, with HT29 colon, with SN12C renal, in the test with ACHN renal, with NCI-H23 lung and with A498 renal was greater than 100 µM throughout. The TGI in the test on A549 NSCLC, with T-47D breast, in the test with EKVX NSCLC, with HL-60(TB) leukemia, in the test with SK-MEL-28 melanoma and in the test on U251 CNS was greater than 100 µM each time. Moreover, the TGI in the test with HCT-15 colon, in the test on COLO 205 colon, in the test on MCF7 breast, in the test on SNB-19 CNS, with TK-10 renal and in the test on OVCAR-3 ovarian was greater than 100 µM throughout.
